Reference: PMC3366211, “Leishmanicidal Activity of Nine Novel Flavonoids from Delphinium staphisagria” (The Scientific World Journal, 2012)
Read-outs that look alike come from different tables or passages of the source.

Key:
[1] = system: L. braziliensis axenic amastigote forms; assay: Axenic amastigote forms assay; assay type: cell-based, Leishmania braziliensis; details: for IC50: 48 hours per method (72 h); for SI Axenic amastigote forms: IC50 macrophages/IC50 parasite form
Method: (§1) Axenic amastigotes forms of L. infantum and L. braziliensis were cultured following the methodology described previously by Moreno et al.. Thus, promastigote transformation to amastigotes was obtained after three days of culture in M199 medium (Invitrogen, Leiden, The Netherlands) supplemented with 10% heat-inactivated FCS, 1 g/L β-alanine, 100 mg/L L-asparagine, 200 mg/L sacarose, 50 mg/L sodium pyruvate, 320 mg/L malic acid, 40 mg/L fumaric acid, 70 mg/L succinic acid, 200 mg/L α-ketoglutaric acid, 300 mg/L citric acid, 1.1 g/L sodium bicarbonate, 5 g/L MES, 0.4 mg/L hemin, and 10 mg/L gentamicin pH 5.4 at 37°C. The effect of each compound against axenic amastigotes forms was tested at 48 hours using a Neubauer haemocytometric chamber. The antileishmanial effect is expressed as the IC50.

[2] = system: L. infantum intracellular amastigote forms; assay: Intracellular amastigote forms assay in J774.2 macrophages; assay type: cell-based, Leishmania infantum; details: for SI Intracellular amastigote forms / number of times that compound SI exceeds the reference drug SI, Intracellular amastigote forms: L. infantum; for SI Intracellular amastigote forms: IC50 macrophages/IC50 parasite form; for number of times that compound SI exceeds the reference drug SI, Intracellular amastigote forms: in brackets, reference Glucantime; for IC50: L. infantum in J774.2 macrophages, 72 h
Method: (§2) Cells were seeded at a density of 1 × 10^4 cells/well in 24-well microplates (Nunc) with rounded coverslips on the bottom and cultured for 2 days. Afterwards the cells were infected in vitro with promastigote forms of L. infantum and L. braziliensis, at a ratio of 10 : 1 during 24 hours. The non-phagocytosed parasites were removed by washing, and then the drugs (at 1, 10, 25, 50, 100 μM) were added. Macrophages with the drugs were incubated for 72 hours at 37°C in 5% CO2.
(§3) Drug activity was determined on the basis of number of amastigotes in treated and untreated cultures in methanol-fixed and Giemsa-stained preparations. The number of amastigotes was determined by analyzing 200 host cells distributed in randomly chosen microscopic fields. The antileishmanial effect is expressed as the IC50 values are the means of three separate determinations.

L. braziliensis = assay: Infection assay in J774.2 macrophages; assay type: cell-based, Leishmania braziliensis; details: IC25 concentration; for infection rate decrease, percentage of inhibition capacity: with respect to control
Method: (§4) J774.2 macrophage cells were grown under the same conditions expressed in amastigote forms assay during two days. Afterwards, the cells were infected in vitro with promastigote forms of L. infantum and L. braziliensis, at a ratio of 10 : 1. The drugs (IC25 concentrations) were added immediately after infection and were incubated for 12 hours at 37°C in 5% CO2. The nonphagocytosed parasites and the drugs were removed by washing, and then the infected cultures were grown for 10 days in fresh medium. Fresh culture medium was added every 48 h. The drug activity was determined from the percentage of infected cells and the number of amastigotes per infected cell (in treated and untreated cultures) in methanol-fixed and Giemsa-stained preparations. The percentage of infected cells and the mean number of amastigotes per infected cell were determined by analyzing 200 host cells distributed in randomly chosen microscopic fields. Values are the average of three separate determinations.

[3] = system: L. braziliensis promastigotes; assay: Ultrastructural alterations (TEM); assay type: cell-based, Leishmania braziliensis; details: IC25, 96 hours
Method: (§5) The parasites were cultured at a density of 5 × 10^5 cells/mL in MTL medium, and the cultures contained drugs at the IC25 concentration.
(§6) After 96 hours, those cultures were centrifuged at 400 g for 10 min, and the pellets produced were washed in PBS and then mixed with 2% (v/v) P-formaldehyde-glutaraldehyde in 0.05 M cacodylate buffer (pH 7.4) for 4 hours at 4°C. After that, the pellets were prepared for TEM employing the technique of González et al..

[4] = system: L. infantum promastigotes; assay: Ultrastructural alterations (TEM); assay type: cell-based, Leishmania infantum; details: IC25, 96 hours
Method: as §5, §6

[5] = system: L. infantum promastigotes; assay: Metabolite excretion (1H-NMR); assay type: cell-based, Leishmania infantum; details: IC25, 96 hours, vs control
Method: Cultures of L. infantum and L. braziliensis promastigotes (initial concentration 5 × 10^5 cells/mL) received IC25 concentrations of the compounds (except for control cultures). After incubation for 96 hours at 28°C, the cells were centrifuged at 400 g for 10 min. Then supernatants were collected to determine the excreted metabolites using ^1H-NMR, and, eventually, chemical displacements were expressed in parts per million (ppm), using sodium 2,2-dimethyl-2-silapentane-5-sulphonate as the reference signal. The chemical displacements used to identify the respective metabolites were consistent with those described by Fernández-Becerra et al.

[6] = system: L. infantum promastigote forms; assay: Promastigote forms assay; assay type: cell-based, Leishmania infantum; details: for SI Promastigote forms: IC50 macrophages/IC50 parasite form; for IC50: 72 h; for times SI exceeds the reference drug SI (all forms): extracellular and intracellular forms; for times SI exceeds the reference drug SI (all forms) / number of times that compound SI exceeds the reference drug SI, Promastigote forms: reference Glucantime; for number of times that compound SI exceeds the reference drug SI, Promastigote forms: in brackets
Method: (§7) The compounds obtained were dissolved in the culture medium, at dosages of 100, 50, 25, 10, and 1 μM. The effects of each compound against promastigote forms were tested at 72 hours using a Neubauer haemocytometric chamber. The antileishmanial effect is expressed as the IC50, that is, the concentration required to give 50% inhibition, calculated by linear regression analysis from the Kc values of the concentrations employed.

[7] = system: L. infantum axenic amastigote forms; assay: Axenic amastigote forms assay; assay type: cell-based, Leishmania infantum; details: for SI Axenic amastigote forms: IC50 macrophages/IC50 parasite form; for IC50: 48 hours per method (72 h); for number of times that compound SI exceeds the reference drug SI, Axenic amastigote forms: in brackets, reference Glucantime
Method: as §1

[8] = system: L. braziliensis intracellular amastigote forms; assay: Intracellular amastigote forms assay in J774.2 macrophages; assay type: cell-based, Leishmania braziliensis; details: for SI Intracellular amastigote forms / number of times that compound SI exceeds the reference drug SI, Intracellular amastigote forms: L. braziliensis; for SI Intracellular amastigote forms: IC50 macrophages/IC50 parasite form; for number of times that compound SI exceeds the reference drug SI, Intracellular amastigote forms: in brackets, reference Glucantime; for IC50: L. braziliensis in J774.2 macrophages, 72 h
Method: as §2, §3

[9] = system: L. braziliensis promastigote forms; assay: Promastigote forms assay; assay type: cell-based, Leishmania braziliensis; details: for SI Promastigote forms: IC50 macrophages/IC50 parasite form; for IC50: 72 h; for number of times that compound SI exceeds the reference drug SI, Promastigote forms: in brackets, reference Glucantime
Method: as §7

L. infantum = assay: Infection assay in J774.2 macrophages; assay type: cell-based, Leishmania infantum; details: IC25 concentration; for infection rate decrease, percentage of inhibition capacity: with respect to control
Method: as §4

J774.2 macrophages = assay: Cytotoxicity test for macrophages (flow cytometry); assay type: cell-based, BALB/c rat; details: J774.2 macrophages after 72 h of culture, read-out: Macrophage toxicity IC50
Method: J774.2 macrophages (ECACC number 91051511) were originally obtained from a tumour in a female BALB/c […] in 1968. The cytotoxicity test for macrophages was performed according to the methodology of González et al.. After 72 hours of treatment, cell viability was determined by flow cytometry. Thus, 100 μL/well of propidium iodide solution ([…]) was added and incubated for 10 min at 28°C in darkness. Afterwards, 100 μL/well of fluorescein diacetate (100 ng/mL) was added and incubated under the same conditions. Finally, the cells were recovered by centrifugation at 400 g for 10 min and the precipitate washed with phosphate buffered saline (PBS). Flow cytometric analysis was performed with a FACSVantage flow cytometer (Becton Dickinson). The percentage viability was calculated in comparison with the control culture. The IC50 was calculated using linear regression analysis from the Kc values of the concentrations employed.

Row | Compound | IC50 ([1]; Leishmania braziliensis) [µM] | SI Intracellular amastigote forms [2] | number of times that compound SI exceeds the reference drug SI, Intracellular amastigote forms [2] | IC50 ([2]; Leishmania infantum) [µM] | decrease of average number of amastigotes per infected macrophage cell (L. braziliensis) [%] | infection rate decrease, percentage of inhibition capacity (L. braziliensis) [%] | SI Promastigote forms [6] | IC50 ([6]; Leishmania infantum) [µM] | times SI exceeds the reference drug SI (all forms) [6] | number of times that compound SI exceeds the reference drug SI, Promastigote forms [6] | SI Axenic amastigote forms [7] | IC50 ([7]; Leishmania infantum) [µM] | number of times that compound SI exceeds the reference drug SI, Axenic amastigote forms [7] | SI Intracellular amastigote forms [8] | number of times that compound SI exceeds the reference drug SI, Intracellular amastigote forms [8] | IC50 ([8]; Leishmania braziliensis) [µM] | SI Promastigote forms [9] | IC50 ([9]; Leishmania braziliensis) [µM] | number of times that compound SI exceeds the reference drug SI, Promastigote forms [9] | decrease of average number of amastigotes per infected macrophage cell (L. infantum) [%] | further results
1 | CC(=O)O[C@H]1[C@H](Oc2c(-c3ccc(O)cc3)oc3cc(O[C@@H]4O[C@H](CO)[C@@H](O)[C@H](O)[C@H]4O)cc(O)c3c2=O)O[C@H](CO)[C@@H](O)[C@@H]1O [Compound 5, 2′′-acetylpaeonoside] | 19.4 ± 0.9 | 26.9 | 54 | 37.2 ± 3.5 | 72 | 79 | 40.7 | 24.6 ± 3.7 | more than 50 times | 51 | 33.6 | 29.8 ± 2.2 | 56 | 20.0 | 40 | 50.9 ± 6.2 | 29.3 | 34.1 ± 6.6 | 49 | 45 | ultrastructural alterations by TEM [3]: no significant changes compared to the control; ultrastructural alterations by TEM [4]: produced similar effects; change in excreted catabolites [5]: an increase in the excretion of succinate, and acetate, followed by malate, alanine, lactate and ethanol; infection rate decrease, percentage of inhibition capacity (L. infantum): 79%
2 | CC(=O)OC[C@H]1O[C@@H](Oc2c(-c3ccc(OC(C)=O)c(OC(C)=O)c3)oc3cc(O[C@@H]4O[C@@H](C)[C@H](OC(C)=O)[C@@H](OC(C)=O)[C@H]4OC(C)=O)cc(OC(C)=O)c3c2=O)[C@H](OC(C)=O)[C@@H](OC(C)=O)[C@@H]1OC(C)=O [Compound 9, petiolaroside decacetate] | 24.6 ± 1.3 | 15.8 | 32 | 31 ± 1.7 | – | – | 21.5 | 22.8 ± 1.7 | < 50 times | 27 | 22.8 | 21.5 ± 0.9 | 38 | 23.3 | 47 | 21 ± 1.3 | 15.2 | 32.3 ± 3.3 | 25 | – | SI Axenic amastigote forms [1]: 19.9; number of times that compound SI exceeds the reference drug SI, Axenic amastigote forms ([1]; in brackets, reference Glucantime): 40; IC50 (J774.2 macrophages; Mus musculus, J774.2, 72 h): 490 ± 22.4 µM
3 | meglumine antimoniate [Glucantime, reference compound] | – | 0.5 | – | – | 33 | 58 | 0.8 | – | – | – | 0.6 | – | – | – | – | – | 0.6 | – | – | 12 | IC50 [1]: 30.4 ± 6.1 µM; SI Axenic amastigote forms [1]: 0.5; IC50 [2]: 30 ± 2.7 µM; IC50 [6]: 18 ± 3.1 µM; IC50 (J774.2 macrophages): 15.2 ± 1.3 µM; IC50 [7]: 24.2 ± 2.6 µM; IC50 [8]: 31.1 ± 3 µM; IC50 [9]: 25.6 ± 1.6 µM; infection rate decrease, percentage of inhibition capacity (L. infantum): 63%
